Measured values reported in patent EP0092073A1, “Magnesium salt of chenodeoxycholic acid and ursodeoxycholic acid, the process for its preparation, and therapeutic compositions which contain it as active principle” (SCHWARZ ITALIA S.p.A., priority 1982, dated 1983).
Where two headings read alike, the source gives them in different places.

Experiments:
[1] = system: hampsters; experiment: Action on the formation of cholesterol calculi in the gall-bladder (cholesterol-enriched diet, 80 days); type: in vivo; settings: female hampsters; for % animals with calculi / % animals with crystals: cholesterol-enriched diet
Experimental: (§1) The investigations were carried out on hampsters (of female sex, but excluding those in a state of pregnancy) having an initial weight of 75-90 g. They were treated for 80 days with oral administration (by gastric probe) of MG-UCD (10-20 mg/kg/day), chenodeoxycholic acid (10-20 mg/kg/day) or ursodeoxycholic acid (10-20 mg/kg/day) (Tables 4 and 5). The animals were maintained for 80 consecutive days on a Nossan feed diet for rats, enriched with cholesterol (2 mg/g of food).
(§2) Each experimental group consisted of 10 units. After 80 days, the animals were narcotised with ethyl ether, and the bile was withdrawn, together with the calculi and crystals from the gall-bladder as described by Pearlman and coll. in Gastroenterology 77, 634 (1979).

[2] = system: hampsters; experiment: Bile lipid and bile acid contents of the bile (cholesterol-enriched diet, 80 days); type: in vivo
Experimental: as §1, §2
The bile acid, phospholipid, cholesterol, cholic acid, chenodeoxycholic acid, ursodeoxycholic acid, DCA (deoxycholic acid) and LCA (lithocholic acid) contents were evaluated in the bile by the methods described by Pearlman and coll. (see above).

[3] = system: patients; experiment: Controlled study in comparison with the free acids; tolerability in patients; type: in vivo; settings: patients
[4] = system: Mus musculus; experiment: Acute lethality and toxicity, oral administration (gastric probe); type: in vivo; set-up: key to Toxic symptomatology Type: NN = no symptomatology; D = depression; settings: oral
Experimental: (§3) Unless otherwise specified, the research was carried out using: a) Mg-UCD capsules as such; b) the powdered contents of Mg-UCD capsules; CDCA (chenodeoxycholic acid) and UDCA (ursodeoxycholic acid) as pure substance which in all cases was partly dissolved and partly suspended under warm conditions (T = 30°C) in 10% gum arabic mucilage (so as to administer 10-40 ml of liquid per kg orally). In certain cases, namely in the experiments involving parenteral administration, the active principle of Mg-UCD, the chenodeoxycholic acid and ursodeoxycholic acid were dissolved in distilled water of slightly alkaline pH (5-10 ml/kg).
(§4) The generally acute lethality, toxicity and tolerability were determined by oral administration of the Mg-UCD (by gastric probe) in the Mus musculus, rat and dog. Animals of both sexes were used, none of which were pregnant. They were fasted for about 12 hours before treatment (but allowing them free access to water). The investigations were carried out using the Mg-UCD in powder form. Comparative investigations were carried out on the rat and Mus musculus using the active principle by endoperitoneal administration, and chenodeoxycholic acid and ursodeoxycholic acid by oral administration (using a gastric probe). Each dose was administered to 20 rats or Mus musculus (10 male and 10 female) and to eight dogs (4 male and 4 female). The animals were observed attentively during the 7 days following administration, and any lethality, toxic symptoms, disturbances, functional variations determinable with the eye, behaviour etc. were noted.
(§5) The LD50 was determined 7 days after administration using the probit method.

[5] = as above; type: in vivo, Mus musculus; set-up: key to Toxic symptomatology Type: NN = no symptomatology; D = depression; settings: in vivo, po; for mortality at 24 h / mortality at 168 h: oral; for mortality at 24 h: read-out: % mortality at following times after administration 24 h; for mortality at 168 h: read-out: % mortality at following times after administration 7 days; for LD50 at 168 h: probit method, read-out: LD50 (mg/kg with reliability limits) 7 days after treatment
Experimental: as §3, §4, §5

[6] = system: rat; experiment: as above; type: in vivo; set-up: key to Toxic symptomatology Type: NN = no symptomatology; D = depression; settings: oral
Experimental: as §3, §4, §5

[7] = mouse, 2000 mg/kg, M. musculus F, 2000 mg/kg
[8] = mouse, 2000 mg/kg, M. musculus M, 2000 mg/kg
[9] = mouse, 4000 mg/kg, M. musculus F, 4000 mg/kg
[10] = mouse, 4000 mg/kg, M. musculus M, 4000 mg/kg
[11] = mouse, 8000 mg/kg, M. musculus F, 8000 mg/kg
[12] = mouse, 8000 mg/kg, M. musculus M, 8000 mg/kg
[13] = rat, 2000 mg/kg, Rat F, 2000 mg/kg
[14] = rat, 2000 mg/kg, Rat M, 2000 mg/kg
[15] = rat, 4000 mg/kg, Rat F, 4000 mg/kg
[16] = rat, 4000 mg/kg, Rat M, 4000 mg/kg
[17] = rat, 8000 mg/kg, Rat F, 8000 mg/kg
[18] = rat, 8000 mg/kg, Rat M, 8000 mg/kg

With C[C@H](CCC(=O)O)[C@H]1CC[C@H]2[C@@H]3[C@H](O)C[C@@H]4C[C@H](O)CC[C@]4(C)[C@H]3CC[C@]12C [Chenodeoxycholic acid, 17β-(1-methyl-3-carboxypropyl)-ethiocholane-3α, 7α-diol] the “% animals with calculi” value ([1]; 10 mg/kg/day oral for 80 days) was 50%, the “% animals with crystals” value ([1]; 10 mg/kg/day oral for 80 days) was 30% and the “% animals with calculi” value ([1]; 20 mg/kg/day oral for 80 days) was 0%. For the same molecule, the “% animals with crystals” value ([1]; 20 mg/kg/day oral for 80 days) was 0%, the “Body weight (g ± s.e.) after following days 80” value ([1]; day 80, oral, 10 mg/kg/day) was 148 ± 9 g and the “Bile acids (expressed as molar % ± s.e.) Cheno-deoxycholic acid” value ([2]; 10 mg/kg/day oral for 80 days) was 42.1 ± 3.6 molar %. The “Bile acids (expressed as molar % ± s.e.) Cholic acid” value ([2]; 10 mg/kg/day oral for 80 days) was 29.6 ± 2.6 molar %, the “Bile acids (expressed as molar % ± s.e.) DCA” value ([2]; 10 mg/kg/day oral for 80 days) was 12.7 ± 0.6 molar % and the “Bile acids (expressed as molar % ± s.e.) LCA” value ([2]; 10 mg/kg/day oral for 80 days) was 3.2 ± 0.1 molar %. The “Bile acids (expressed as molar % ± s.e.) Urso-deoxycholic acid” value ([2]; 10 mg/kg/day oral for 80 days) was 6.6 ± 0.4 molar %, the “Bile lipids (expressed as molar % ± s.e.) Bile acids” value ([2]; 10 mg/kg/day oral for 80 days) was 79.5 ± 5.6 molar % and the “Bile lipids (expressed as molar % ± s.e.) Cholesterol” value ([2]; 10 mg/kg/day oral for 80 days) was 7.2 ± 0.2 molar %. The “Bile lipids (expressed as molar % ± s.e.) Phospho-lipids” value ([2]; 10 mg/kg/day oral for 80 days) was 16.0 ± 1.8 molar %, the “Bile acids (expressed as molar % ± s.e.) Cheno-deoxycholic acid” value ([2]; 20 mg/kg/day oral for 80 days) was 66.0 ± 4.7 molar % and the “Bile acids (expressed as molar % ± s.e.) Cholic acid” value ([2]; 20 mg/kg/day oral for 80 days) was 18.7 ± 2.1 molar %. For the same molecule, the “Bile acids (expressed as molar % ± s.e.) DCA” value ([2]; 20 mg/kg/day oral for 80 days) was 10.4 ± 0.2 molar %, the “Bile acids (expressed as molar % ± s.e.) LCA” value ([2]; 20 mg/kg/day oral for 80 days) was 3.4 ± 0.3 molar % and the “Bile acids (expressed as molar % ± s.e.) Urso-deoxycholic acid” value ([2]; 20 mg/kg/day oral for 80 days) was 7.8 ± 0.3 molar %. The “Bile lipids (expressed as molar % ± s.e.) Bile acids” value ([2]; 20 mg/kg/day oral for 80 days) was 80.2 ± 3.8 molar %, the “Bile lipids (expressed as molar % ± s.e.) Cholesterol” value ([2]; 20 mg/kg/day oral for 80 days) was 5.9 ± 0.3 molar % and the “Bile lipids (expressed as molar % ± s.e.) Phospho-lipids” value ([2]; 20 mg/kg/day oral for 80 days) was 15.8 ± 1.3 molar %. For the same molecule, the side effects [3] was “diarrhoea, and, in certain cases, transaminase increase”, the “Toxic symptomatology Latency” value ([4]; M. musculus F, 2000 mg/kg) was 5-10 min and the “Toxic symptomatology Type” value ([4]; M. musculus F, 2000 mg/kg) was “D”. For the same molecule, the “Toxic symptomatology Latency” value ([4]; M. musculus F, 4000 mg/kg) was 5-10 min, the “Toxic symptomatology Type” value ([4]; M. musculus F, 4000 mg/kg) was “D” and the “Toxic symptomatology Latency” value ([4]; M. musculus F, 8000 mg/kg) was 5-10 min. The “Toxic symptomatology Type” value ([4]; M. musculus F, 8000 mg/kg) was “D”, the “Toxic symptomatology Latency” value ([4]; M. musculus M, 2000 mg/kg) was 5-10 min and the “Toxic symptomatology Type” value ([4]; M. musculus M, 2000 mg/kg) was “D”. The “Toxic symptomatology Latency” value ([4]; M. musculus M, 4000 mg/kg) was 5-10 min, the “Toxic symptomatology Type” value ([4]; M. musculus M, 4000 mg/kg) was “D” and the “Toxic symptomatology Latency” value ([4]; M. musculus M, 8000 mg/kg) was 5-10 min. For the same molecule, the “Toxic symptomatology Type” value ([4]; M. musculus M, 8000 mg/kg) was “D”, the mortality at 24 h [5, 7] was 0% and the mortality at 168 h [5, 7] was 0%. It also gave a mortality at 24 h [5, 8] of 0%, a mortality at 168 h [5, 8] of 0% and a mortality at 24 h [5, 9] of 30%. The mortality at 168 h [5, 9] was 30%, the mortality at 24 h [5, 10] was 30% and the mortality at 168 h [5, 10] was 30%. For the same molecule, the mortality at 24 h [5, 11] was 80%, the mortality at 168 h [5, 11] was 80% and the mortality at 24 h [5, 12] was 80%. The mortality at 168 h [5, 12] was 80%, the LD50 at 168 h ([5]; mouse, M. musculus F) was 5280 mg/kg and the LD50 at 168 h ([5]; mouse, M. musculus M) was 5280 mg/kg. It also gave a mortality at 24 h [5, 13] of 0%, a mortality at 168 h [5, 13] of 0% and a mortality at 24 h [5, 14] of 0%. It also gave a mortality at 168 h [5, 14] of 0%, a mortality at 24 h [5, 15] of 30% and a mortality at 168 h [5, 15] of 30%. It also gave a mortality at 24 h [5, 16] of 40%, a mortality at 168 h [5, 16] of 40% and a mortality at 24 h [5, 17] of 90%. It also gave a mortality at 168 h [5, 17] of 90%, a mortality at 24 h [5, 18] of 80% and a mortality at 168 h [5, 18] of 80%. For the same molecule, the LD50 at 168 h ([5]; rat, Rat F) was 4890 mg/kg, the LD50 at 168 h ([5]; rat, Rat M) was 4010 mg/kg and the “Toxic symptomatology Latency” value ([6]; Rat F, 2000 mg/kg) was 5-10 min. For the same molecule, the “Toxic symptomatology Type” value ([6]; Rat F, 2000 mg/kg) was “D”, the “Toxic symptomatology Latency” value ([6]; Rat F, 4000 mg/kg) was 5-10 min and the “Toxic symptomatology Type” value ([6]; Rat F, 4000 mg/kg) was “D”. For the same molecule, the “Toxic symptomatology Latency” value ([6]; Rat F, 8000 mg/kg) was 5-10 min, the “Toxic symptomatology Type” value ([6]; Rat F, 8000 mg/kg) was “D” and the “Toxic symptomatology Latency” value ([6]; Rat M, 2000 mg/kg) was 5-10 min. The “Toxic symptomatology Type” value ([6]; Rat M, 2000 mg/kg) was “D”, the “Toxic symptomatology Latency” value ([6]; Rat M, 4000 mg/kg) was 5-10 min and the “Toxic symptomatology Type” value ([6]; Rat M, 4000 mg/kg) was “D”. The “Toxic symptomatology Latency” value ([6]; Rat M, 8000 mg/kg) was 5-10 min and the “Toxic symptomatology Type” value ([6]; Rat M, 8000 mg/kg) was “D”.
